In patent publication US20050192261A1, “Methods and reagents for the treatment of immunoinflammatory disorders” (priority 2003, published 2005):

System: TNFα secretion in white blood cells from human buffy coat stimulated with phorbol 12-myristate 13-acetate and ionomycin
Experiment: TNFα secretion assay
Details: Bromodiphenhydramine HCl μM: 0/0.21/0.43/0.85/1.7/3.4/6.8/14/27
Method: Drugs were added to the indicated concentration. […] The plate was then washed again with 0.1% Tween 20/PBS. An HRP-luminescent substrate was added to each well, and the light intensity of each well was measured using a plate luminometer.

SMILES: CNCCC=C1c2ccccc2CCc2ccccc21.Cl [Nortryptyline HCl]
- percent inhibition of TNFα secretion (Nortryptyline HCl 1 μM): 1.7
- percent inhibition of TNFα secretion (Nortryptyline HCl 17 μM): 80
- percent inhibition of TNFα secretion (Nortryptyline HCl 33 μM): 92
